Assay results reported in US11697636B2, “Substituted benzamides” (Hoffmann-La Roche Inc., priority 2009, dated 2023).
Structures can show the parent of a compound that is named as a salt.

Target: mouse TAAR1 (Mus musculus (Mouse), UniProt Q923Y8)
Experiment: Radioligand binding assay on mouse TAAR1
Conditions: mouse TAAR1, HEK-293 membranes; first value of mouse/rat pair
Method: For the construction of expression plasmids the coding sequences of human, rat and mouse TAAR 1 were amplified from genomic DNA essentially as described by Lindemann et al.. […] PCR products were subcloned into the pIRESneo2 vector (BD Clontech, Palo Alto, Calif.), and expression vectors were sequence verified before introduction in cell lines.
HEK293 cells (ATCC #CRL-1573) were cultured essentially as described by Lindemann et al. (2005). […] After a culture period of about 10 d clones were isolated, expanded and tested for responsiveness to trace amines (all compounds purchased from Sigma) with the cAMP Biotrak Enzyme immunoassay (EIA) System (Amersham) following the non-acetylation EIA procedure provided by the manufacturer.
Radioligand Binding Assay on Mouse TAAR1
Membrane Preparation and Radioligand Binding.
HEK-293 cells stably expressing mouse TAAR1 were maintained at 37° C. and 5% CO2 in DMEM high glucose medium, containing fetal calf serum (10%, heat inactivated for 30 min at 56° C.), penicillin/streptomycin (1%), and 375 μg/ml geneticin (Gibco). Cells were released from culture flasks using trypsin/EDTA, harvested, washed twice with ice-cold PBS (without Ca^2+ and Mg^2+), pelleted at 1′000 rpm for 5 min at 4° C., frozen and stored at −80° C. […] With each new membrane batch the dissociation constant (Kd) was determined via a saturation curve. […]

Chain of mouse TAAR1 (Q923Y8 whole entry): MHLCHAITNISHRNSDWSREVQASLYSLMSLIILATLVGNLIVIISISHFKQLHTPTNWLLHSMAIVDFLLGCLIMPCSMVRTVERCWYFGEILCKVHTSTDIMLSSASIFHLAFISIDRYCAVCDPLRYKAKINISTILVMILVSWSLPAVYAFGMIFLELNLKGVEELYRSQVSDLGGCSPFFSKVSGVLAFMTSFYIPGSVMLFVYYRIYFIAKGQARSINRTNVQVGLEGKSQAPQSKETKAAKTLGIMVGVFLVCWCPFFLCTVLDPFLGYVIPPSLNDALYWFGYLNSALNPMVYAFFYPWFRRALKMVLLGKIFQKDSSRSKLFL

## O=C(Nc1ccccc1)Nc1ccc(C2CCNC2)cc1 (racemic) [Example 6, (RS)-1-Phenyl-3-(4-pyrrolidin-3-yl-phenyl)-urea hydrochloride]
  Ki: 32 µM
